Laboratory results taken from US20250304537A1 (Repare Therapeutics Inc., priority 2022, published 2025).
Read-outs that look alike come from different tables or passages of the source.

How the values were obtained:
[1] = biological target: recombinant human Myt1 (full length PKMYT1) (Homo sapiens (Human), UniProt Q99640); test: Recombinant human Myt1 kinase assay (ADP-Glo); format: biochemical; conditions: 10 μM ATP
Method in brief: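 Full-length insect-cell-expressed human Myt1 (18 nM final) was preincubated with compound (0.5% DMSO) for 15 min at 22 °C. The reaction ran with 10 μM ATP for 60 min at 30 °C in HEPES buffer with Mg2+/Mn2+ and DTT. ADP formed was read by ADP-Glo luminescence, giving IC50 and % max inhibition.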

[2] = system: PKMYT1 (CDK1 pThr14) in FUOV1 cells; test: PKMYT1 cell-based activity assay, CDK1 pThr14 AlphaLISA in FUOV1 cells; conditions: read-out: FUOV-1 CDK1 pThr14 IC50
Method in brief: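 FUOV1 cells were treated with PKMYT1 inhibitor for 2 h at 37 °C, then lysed. CDK1 pThr14 was measured by AlphaLISA, pairing an anti-pThr14 antibody with an anti-total CDK1 antibody (5 nM each). Signal read at 680/615 nm and used to derive IC50.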

Chain of recombinant human Myt1 (full length PKMYT1) (Q99640 whole entry): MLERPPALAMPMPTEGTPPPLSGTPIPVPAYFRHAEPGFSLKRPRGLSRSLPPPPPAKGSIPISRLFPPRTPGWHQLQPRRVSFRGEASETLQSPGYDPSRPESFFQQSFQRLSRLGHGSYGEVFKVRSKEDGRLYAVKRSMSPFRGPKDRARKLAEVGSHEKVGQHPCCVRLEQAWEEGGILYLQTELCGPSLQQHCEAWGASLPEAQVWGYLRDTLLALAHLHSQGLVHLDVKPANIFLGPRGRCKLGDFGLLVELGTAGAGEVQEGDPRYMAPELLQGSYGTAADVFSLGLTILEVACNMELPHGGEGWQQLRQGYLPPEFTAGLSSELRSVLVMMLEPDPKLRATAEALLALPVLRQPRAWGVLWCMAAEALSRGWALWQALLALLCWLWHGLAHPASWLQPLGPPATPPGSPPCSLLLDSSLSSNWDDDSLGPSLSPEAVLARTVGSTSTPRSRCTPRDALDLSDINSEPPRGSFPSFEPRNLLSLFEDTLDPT

IC50 [1] [nM] | IC50 ([2]; 2 h, 2 h incubation) [nM] | IC50 ([2]; 2 h, 2 h compound incubation) [nM] | IC50 ([2]; 2 h, 2 hours with compound) [nM] | IC50 ([2]; 2 h incubation) [nM] | Compound
7 | 46 | – | – | – | Cc1ccc(O)c(C)c1-c1cc(-c2cccc(OC3CCOCC3)n2)nc(C(N)=O)c1N [Compound 57]
6 | 351 | – | – | – | COC(C)(C)COc1nccc(-c2cc(-c3c(C)ccc4[nH]ncc34)c(N)c(C(N)=O)n2)n1 [Compound 327]
4 | – | 136 | – | – | Cc1ccc2[nH]ncc2c1-c1nc(-c2cccc(F)c2NCC(F)F)nc(C(N)=O)c1N [Compound 435]
10 | – | 885 | – | – | Cc1ccc2[nH]ncc2c1-c1nc(-c2cccnc2Nc2cccc(F)c2)nc(C(N)=O)c1N [Compound 600]
26 | – | 447 | – | – | Cc1ccc2[nH]ncc2c1-c1nc(-c2ccc(C(F)(F)F)cc2NC(=O)C2(C)CC2)nc(C(N)=O)c1N [Compound 454, 5-amino-6-(5-methyl-1H-indazol-4-yl)-2-(2-(1-methylcyclopropane-1-carboxamido)-4-(trifluoromethyl)phenyl)pyrimidine-4-carboxamide]
4 | 903 | – | – | – | Cc1ccc2[nH]ncc2c1-c1cc(-c2ccnc(OCCc3ccccn3)n2)nc(C(N)=O)c1N [Compound 239]
6 | – | 106 | – | – | Cc1ccc2[nH]ncc2c1-c1nc(-c2cc(F)c(F)cc2NCC(F)F)nc(C(N)=O)c1N [Compound 467]
4 | 134 | – | – | – | Cc1ccc2[nH]ncc2c1-c1cc(-c2ccnc(OCc3ccccn3)n2)nc(C(N)=O)c1N [Compound 229]
6 | 56 | – | – | – | COCC(=O)Nc1ccccc1-c1nc(C(N)=O)c(N)c(-c2c(C)ccc3[nH]ncc23)n1 [Compound 332, 5-amino-2-(2-(2-methoxyacetamido)phenyl)-6-(5-methyl-1H-indazol-4-yl)pyrimidine-4-carboxamide]
< 3 | – | – | 27 | – | Cc1ccc2[nH]ncc2c1-c1nc(-c2cccnc2NC2(C)CC(C)(O)C2)nc(C(N)=O)c1N (stereo not shown) [Compound 901]
58 | – | – | – | 945 | Cc1ccc2[nH]ncc2c1-c1cc(-c2ccnnc2)nc(C(N)=O)c1N [Compound 86]
18 | 2410 | – | – | – | Cc1ccc(O)c(C)c1-c1cc(C2CC2)nc(C(N)=O)c1N [Compound 54]
4 | – | 23 | – | – | Cc1ccc2[nH]ncc2c1-c1nc(-c2ccccc2NC(=O)C2(C#N)CC2)nc(C(N)=O)c1N [Compound 423]
7 | – | 112 | – | – | Cc1ccc2[nH]ncc2c1-c1nc(-c2ccccc2NC(=O)C23CC(F)(C2)C3)nc(C(N)=O)c1N [Compound 448]
8 | – | 59 | – | – | Cc1ccc(NC(=O)C2(C)CC2)c(-c2nc(C(N)=O)c(N)c(-c3c(C)ccc4[nH]ncc34)n2)c1 [Compound 437]
3 | 109 | – | – | – | COCCOc1nccc(-c2cc(-c3c(C)ccc4[nH]ncc34)c(N)c(C(N)=O)n2)n1 [Compound 166]
619 | – | – | > 10000 | – | Cc1ccc2[nH]ncc2c1-c1nc(-c2cccnc2Nc2nccn2C2CC2)nc(C(N)=O)c1N [Compound 902]
8 | 117 | – | – | – | COc1cccc(-c2cc(-c3c(C)ccc(O)c3C)c(N)c(C(N)=O)n2)n1 [Compound 62]
4 | – | – | 195 | – | Cc1cc(F)c2[nH]ncc2c1-c1nc(-c2cn(C)nc2NC2CCOCC2)nc(C(N)=O)c1N [Compound 903, 5-amino-6-(7-fluoro-5-methyl-1H-indazol-4-yl)-2-(1-methyl-3-((tetrahydro-2H-pyran-4-yl)amino)-1H-pyrazol-4-yl)pyrimidine-4-carboxamide]
16 | – | 124 | – | – | Cc1ccc2[nH]ncc2c1-c1nc(-c2ccccc2NCC2(C)CC2)nc(C(N)=O)c1N [Compound 452]
4 | – | 23 | – | – | Cc1ccc2[nH]ncc2c1-c1nc(-c2ccccc2NS(C)(=O)=O)nc(C(N)=O)c1N [Compound 427, 5-amino-6-(5-methyl-1H-indazol-4-yl)-2-(2-(methylsulfonamido)phenyl)pyrimidine-4-carboxamide]
11 | 319 | – | – | – | Cc1ccc(O)cc1-c1nc(-c2cccc(N3CCOCC3)c2)nc(C(N)=O)c1N [Compound 27]
6 | 772 | – | – | – | Cc1ccc2[nH]ncc2c1-c1nc(-c2cccc3ncsc23)nc(C(N)=O)c1N [Compound 380]
7 | 243 | – | – | – | Cc1ccc2[nH]ncc2c1-c1cc(-c2cccc(OCc3cccnn3)n2)nc(C(N)=O)c1N [Compound 242]
165 | – | – | – | 284 | Cc1ccc2[nH]ncc2c1-c1cc(-c2cccc(OC[C@H](N)c3ccccc3)n2)nc(C(N)=O)c1N (atropisomer, axis not shown) [Compound 338]
3 | – | – | 22 | – | Cc1ccc2[nH]ncc2c1-c1nc(-c2cc(F)ncc2NC2CCOCC2)nc(C(N)=O)c1N [Compound 843]
6 | 387 | – | – | – | Cc1ccc2[nH]ncc2c1-c1cc(-c2cccc(OCc3ccccn3)n2)nc(C(N)=O)c1N [Compound 228]

IC50 [1] [nM] | IC50 ([2]; 2 h, 2 h incubation) [nM] | IC50 ([2]; 2 h, 2 h compound incubation) [nM] | IC50 ([2]; 2 h, 2 hours with compound) [nM] | IC50 ([2]; 2 h incubation) [nM] | Compound
5 | – | 158 | – | – | Cc1ccc2[nH]ncc2c1-c1nc(-c2cc(F)c(F)cc2NS(=O)(=O)C2CC2)nc(C(N)=O)c1N [Compound 480]
4 | – | 223 | – | – | Cc1ccc2[nH]ncc2c1-c1nc(-c2ccccc2NCC(F)F)cc(C(N)=O)c1N [Compound 412]
< 3 | – | – | 95 | – | Cc1ccc2[nH]ncc2c1-c1nc(-c2cc(F)cnc2NC2(C(F)(F)F)CC2)nc(C(N)=O)c1N [Compound 908]
31 | 737 | – | – | – | Cc1ccc(O)cc1-c1nc(-c2ccc(C(F)(F)F)cc2)nc(C(N)=O)c1N [Compound 7]
8 | 433 | – | – | – | Cc1nc2cccc(-c3nc(C(N)=O)c(N)c(-c4c(C)ccc5[nH]ncc45)n3)c2s1 [Compound 389]
139 | – | > 10000 | – | – | Cc1ccc2[nH]ncc2c1-c1nc(-c2ccccc2NC(=O)C(C)c2ccccc2)nc(C(N)=O)c1N (stereo not shown) [Compound 425]
12 | 551 | – | – | – | Cc1ccc2[nH]ncc2c1-c1cc(-c2ccncn2)nc(C(N)=O)c1N [Compound 105]
3 | – | 6 | – | – | Cc1ccc2[nH]ncc2c1-c1nc(-c2ccccc2NC(=O)C2(F)CC2)nc(C(N)=O)c1N [Compound 461]
7 | – | 23 | – | – | Cc1ccc2[nH]ncc2c1-c1nc(-c2cc(F)c(F)cc2NC(=O)C2(C)CCN(C)C2)nc(C(N)=O)c1N (stereo not shown) [Compound 484]
2 | – | – | – | 11 | Cc1ccc2[nH]ncc2c1-c1cc(-c2cccc(OC[C@H](N)c3ccccc3)n2)nc(C(N)=O)c1N [Compound 276]
4 | 208 | – | – | – | Cc1ccc(-c2cc(-c3c(C)ccc(O)c3C)c(N)c(C(N)=O)n2)nc1 [Compound 40]
3 | – | 41 | – | – | Cc1ccc2[nH]ncc2c1-c1nc(-c2ccc(F)cc2Nc2ccnc(C#N)c2)nc(C(N)=O)c1N [Compound 620]
5 | – | 19 | – | – | Cc1nccc(Nc2cc(F)ccc2-c2nc(C(N)=O)c(N)c(-c3c(C)ccc4[nH]ncc34)n2)n1 [Compound 525]
11 | 495 | – | – | – | Cc1ccc2[nH]ncc2c1-c1cc(-c2cccnc2)nc(C(N)=O)c1N [Compound 107]
< 3.5 | 64 | – | – | – | Cc1ccc(O)c(C)c1-c1cc(-c2nccs2)nc(C(N)=O)c1N [Compound 13, 3-amino-4-(3-hydroxy-2,6-dimethylphenyl)-6-(thiazol-2-yl)picolinamide]
8 | – | 489 | – | – | Cc1cc(Nc2cc(F)ccc2-c2nc(C(N)=O)c(N)c(-c3c(C)ccc4[nH]ncc34)n2)cc(C)n1 [Compound 624]
4 | – | – | – | 167 | Cc1ccc2[nH]ncc2c1-c1cc(-c2cccc(OCc3cccnn3)n2)nc(C(N)=O)c1N (atropisomer, axis not shown) [Compound 260]
7 | 449 | – | – | – | Cc1ccc2[nH]ncc2c1-c1cc(-c2cccc(OC3CCCOC3)n2)nc(C(N)=O)c1N (stereo not shown) [Compound 306]
36 | 8670 | – | – | – | Cc1ccc(O)c(C)c1-c1cc(Cl)nc(C(N)=O)c1N [Compound 17]
6 | 288 | – | – | – | Cc1ccc2[nH]ncc2c1-c1nc(-c2cc(F)cc3c2NC(=O)C3)nc(C(N)=O)c1N [Compound 393]
8 | – | 8 | – | – | Cc1ccc2[nH]ncc2c1-c1nc(-c2cc(F)c(F)cc2NC(=O)C2(C)CC2)nc(C(N)=O)c1N [Compound 446]
4 | – | 209 | – | – | Cc1ccc2[nH]ncc2c1-c1cc(C(N)=O)nc(-c2cccnc2Nc2nc(F)ccc2F)n1 [Compound 499, 2-(2-((3,6-difluoropyridin-2-yl)amino)pyridin-3-yl)-6-(5-methyl-1H-indazol-4-yl)pyrimidine-4-carboxamide]
5 | – | 42 | – | – | Cc1ccc2[nH]ncc2c1-c1nc(-c2cccnc2NCC(F)F)nc(C(N)=O)c1N [Compound 625]
4 | – | 278 | – | – | Cc1ccc2[nH]ncc2c1-c1nc(-c2ccccc2C(C)O)nc(C(N)=O)c1N (stereo not shown) [Compound 787]
19 | – | – | 862 | – | Cc1ccc2[nH]ncc2c1-c1nc(-c2cc(F)cnc2NC2CCOC(C(F)(F)F)C2)nc(C(N)=O)c1N (stereo not shown) [Compound 873]
< 3 | – | – | 10 | – | Cc1ccc2[nH]ncc2c1-c1nc(-c2cccnc2N[C@@H]2CCOCC2(C)C)nc(C(N)=O)c1N [Compound 829]
